Results taken from US10093660B2, “Sulfoximine substituted quinazolines for pharmaceutical compositions” (EVOTEC INTERNATIONAL GMBH, priority 2013, dated 2018).
pIC50: −log10 of the molar value.

Tests used:
[1] = biological target: MNK1a (Homo sapiens (Human), UniProt Q9BUB5); test: MNK1 in vitro kinase assay (Assay 3), Z'-LYTE; assay type: biochemical; conditions: for inhibition at 1 µM: compound concentration of 1 μM, read-out: MNK1 % INH
From the text: C. MNK1 In Vitro Kinase Assay (Assay 3)
MNK1 Data can be obtained from the MNK1 Z′-LYTE® assay. The MNK1 Z′-LYTE® screening protocol and assay conditions are also described on www.invitrogen.com.
The assay is described as follows:
The Z′-LYTE® biochemical assay employs a fluorescence-based, coupled-enzyme format and is based on the differential sensitivity of phosphorylated and non-phosphorylated peptides to proteolytic cleavage. The peptide substrate is labeled with two fluorophores—one at each end—that make up a FRET pair.
In the primary reaction, the kinase transfers the gamma-phosphate of ATP to a single tyrosine, serine or threonine residue in a synthetic FRET-peptide. In the secondary reaction, a site-specific protease recognizes and cleaves non-phosphorylated FRET-peptides. Phosphorylation of FRET-peptides suppresses cleavage by the Development Reagent. Cleavage disrupts FRET between the donor (i.e., coumarin) and acceptor (i.e., fluorescein) fluorophores on the FRET-peptide, whereas uncleaved, phosphorylated FRET-peptides maintain FRET. A ratiometric method, which calculates the ratio (the Emission Ratio) of donor emission to acceptor emission after excitation of the donor fluorophore at 400 nm, is used to quantitate reaction progress, as shown in the equation below.
The 2×MKNK1 (MNK1) mixture is prepared in 50 mM HEPES pH 7.5, 0.01% BRIJ-35, 10 mM MgCl2, 4 mM MnCl2, 1 mM EGTA, 2 mM DTT.
The Test Compounds are screened in 1% DMSO (final) in the well.
All Peptide/Kinase Mixtures are diluted to a 2× working concentration in the MNK1 Kinase Buffer.
All ATP Solutions are diluted to a 4× working concentration in Kinase Buffer (50 mM HEPES pH 7.5, 0.01% BRIJ-35, 10 mM MgCl2, 1 mM EGTA).
Development Reagent Solution:
The Development Reagent is diluted in Development Buffer
1. 2.5 μL—4× Test Compound
2. 5 μL—2× Peptide/Kinase Mixture
5. 60-minute Kinase Reaction incubation at room temperature
6. 5 μL—Development Reagent Solution
8. 60-minute Development Reaction incubation at room temperature
9. Read on fluorescence plate reader and analyze the data
Control C0%=Average Coumarin emission signal of the 0% Phos. Control F100%=Average Fluorescein emission signal of the 100% Phos. Control F0%=Average Fluorescein emission signal of the 0% Phos. Control Graphing Software
SelectScreen® Kinase Profiling Service uses XLfit from IDBS. […] The activity of MNK proteins can be assayed also by other in vitro kinase assay formats. […] In general, MNK kinase assays can be performed such that a MNK substrate such as a protein or a peptide, which may or may not include modifications as further described below, or others are phosphorylated by MNK proteins having enzymatic activity in vitro. The activity of a candidate agent can then be determined via its ability to decrease the enzymatic activity of the MNK protein. The kinase activity may be detected by change of the chemical, physical or immunological properties of the substrate due to phosphorylation.

[2] = biological target: MNK2a (Homo sapiens (Human), UniProt Q9HBH9); test: MNK2a in vitro kinase assay (Assay 2), ADP-Glo; assay type: biochemical; conditions: assay 2; read-out: MNK2 IC50
Sequence of MNK2a (Q9HBH9 whole entry): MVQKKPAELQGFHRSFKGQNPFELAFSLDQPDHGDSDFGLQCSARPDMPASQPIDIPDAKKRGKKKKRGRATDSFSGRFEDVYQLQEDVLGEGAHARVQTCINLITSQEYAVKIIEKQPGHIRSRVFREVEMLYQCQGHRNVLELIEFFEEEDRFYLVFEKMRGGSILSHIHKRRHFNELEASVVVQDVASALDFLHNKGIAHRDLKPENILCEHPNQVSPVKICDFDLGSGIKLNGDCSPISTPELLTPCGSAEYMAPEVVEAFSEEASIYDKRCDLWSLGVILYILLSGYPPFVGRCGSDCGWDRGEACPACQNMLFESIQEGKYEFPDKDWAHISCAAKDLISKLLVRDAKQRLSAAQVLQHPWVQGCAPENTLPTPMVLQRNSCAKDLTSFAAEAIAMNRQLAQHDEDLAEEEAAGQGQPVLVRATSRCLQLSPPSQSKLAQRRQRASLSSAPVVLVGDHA
From the text: B. MNK2a In Vitro Kinase Assay (Assay 2)

Sequence of MNK1a (Q9BUB5 other isoform, or with tags, fused parts or gaps): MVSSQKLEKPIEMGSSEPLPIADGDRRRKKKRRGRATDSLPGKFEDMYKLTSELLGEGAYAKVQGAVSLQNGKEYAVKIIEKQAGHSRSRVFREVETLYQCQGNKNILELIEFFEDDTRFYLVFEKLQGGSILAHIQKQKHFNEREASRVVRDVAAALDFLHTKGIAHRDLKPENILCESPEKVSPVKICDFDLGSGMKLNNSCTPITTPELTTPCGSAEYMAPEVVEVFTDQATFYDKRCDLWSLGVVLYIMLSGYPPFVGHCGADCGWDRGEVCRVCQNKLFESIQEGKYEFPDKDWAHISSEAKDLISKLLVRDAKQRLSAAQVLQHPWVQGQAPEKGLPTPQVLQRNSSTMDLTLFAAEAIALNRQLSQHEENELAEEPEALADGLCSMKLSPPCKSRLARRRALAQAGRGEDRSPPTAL

inhibition at 1 µM [1] [%]	pIC50 [2]	pIC50 [1]	SMILES
90	7.59	–	COc1cc(N=S(C)(C)=O)cc2ncnc(Nc3ccc(F)cc3O[C@H]3COC[C@H]3O)c12 (racemic) [Example 9.3]
99	8.22	–	COc1cc(N=S2(=O)CCCC2)cc2ncnc(Nc3ccc(F)cc3O[C@H]3COC[C@H]3O)c12 (racemic) [Example 9.13]
98	8.15	–	COc1cc(N=S2(=O)CCC2)cc2ncnc(Nc3ccc(F)cc3O[C@H]3COC[C@H]3O)c12 (racemic) [Example 9.16]
–	9.00	7.26	Cc1cc(N=S2(=O)CCCC2)cc2ncnc(Nc3ccc(F)cc3O[C@H]3COC[C@H]3OCCF)c12 (racemic) [Example 10.1]
93	8.70	–	Cc1cc(N=S(C)(C)=O)cc2ncnc(Nc3ccc(F)cc3O[C@H]3COC[C@H]3OCCF)c12 (racemic) [Example 10.2]
–	8.52	7.39	Cc1cc(N=S(C)(C)=O)cc2ncnc(Nc3ccc(F)cc3O[C@H]3COC[C@H]3OCC(F)F)c12 (racemic) [Example 10.3]
104	8.52	–	Cc1cc(N=S2(=O)CCCC2)cc2ncnc(Nc3ccc(F)cc3O[C@H]3COC[C@H]3OCC(F)F)c12 (racemic) [Example 10.4]
96	8.22	–	CO[C@@H]1C=C[C@@H](Oc2cc(F)ccc2Nc2ncnc3cc(N=S(C)(C)=O)cc(C)c23)CO1 (racemic) [Example 13.1]
69	7.89	–	CO[C@@H]1COC[C@H]1Oc1cc(F)ccc1Nc1ncnc2cc(N=S(C)(C)=O)cc(C)c12 (racemic) [Example 13.2]
97	8.52	–	O=S1(=Nc2cc(Cl)c3c(Nc4ccc(F)cc4O[C@@H]4COC[C@@H]4O)ncnc3c2)CCC1 (single isomer, unassigned) [Example 1.34]
–	9.00	7.60	O=S1(=Nc2cc(Cl)c3c(Nc4ccc(F)cc4O[C@H]4COC[C@H]4O)ncnc3c2)CCC1 (single isomer, unassigned) [Example 1.35]
97	9.00	–	CO[C@H]1COC[C@H]1Oc1ncccc1Nc1ncnc2cc(N=S3(=O)CCCC3)cc(C)c12 (single isomer, unassigned) [Example 14.1]
86	8.00	–	CO[C@@H]1COC[C@@H]1Oc1ncccc1Nc1ncnc2cc(N=S3(=O)CCCC3)cc(C)c12 (single isomer, unassigned) [Example 14.2]
99	8.52	–	Cc1cc(N=S2(=O)CCCC2)cc2ncnc(Nc3ccc(F)cc3O[C@@H]3COC[C@@H]3O)c12 (single isomer, unassigned) [Example 14.5]
101	8.70	–	Cc1cc(N=S2(=O)CCCC2)cc2ncnc(Nc3ccc(F)cc3O[C@H]3COC[C@H]3O)c12 (single isomer, unassigned) [Example 14.6]
100	8.52	–	O=S1(=Nc2cc(Cl)c3c(Nc4ccc(F)cc4O[C@@H]4COC[C@@H]4O)ncnc3c2)CCCC1 (single isomer, unassigned) [Example 14.9]
101	8.70	–	O=S1(=Nc2cc(Cl)c3c(Nc4ccc(F)cc4O[C@H]4COC[C@H]4O)ncnc3c2)CCCC1 (single isomer, unassigned) [Example 14.10]
96	8.40	–	CC[S@](C)(=O)=Nc1cc(C)c2c(Nc3ccc(F)cc3O[C@H]3COC[C@@H]3O)ncnc2c1 (single isomer, unassigned) [Example 14.11]
86	7.82	–	CC[S@@](C)(=O)=Nc1cc(C)c2c(Nc3ccc(F)cc3O[C@H]3COC[C@@H]3O)ncnc2c1 (single isomer, unassigned) [Example 14.12]
–	8.05	6.98	Cc1cc(N=S2(=O)CCCC2)cc2ncnc(Nc3ccc(F)cc3O[C@H]3COC[C@H]3C#N)c12 [Example 1.1]
–	7.72	6.42	Cc1cc(N=S(C)(C)=O)cc2ncnc(Nc3ccc(F)cc3O[C@H]3COC[C@H]3C#N)c12 [Example 1.2]
–	8.70	7.74	O=S1(=Nc2cc(Cl)c3c(Nc4ccc(F)cc4O[C@H]4COC[C@@H]4O)ncnc3c2)CCC1 [Example 1.7]

inhibition at 1 µM [1] [%]	pIC50 [2]	pIC50 [1]	SMILES
98	8.70	7.55	O=S1(=Nc2cc(Cl)c3c(Nc4ccc(F)cc4O[C@H]4COC[C@@H]4O)ncnc3c2)CCCC1 [Example 1.9]
64	7.49	–	CS(C)(=O)=Nc1cc(OC(F)F)c2c(Nc3ccc(F)cc3O[C@H]3COC[C@@H]3O)ncnc2c1 [Example 1.11]
88	8.40	–	CS(C)(=O)=Nc1cc(C(F)(F)F)c2c(Nc3ccc(F)cc3O[C@H]3COC[C@@H]3O)ncnc2c1 [Example 1.12]
100	8.40	–	O=S1(=Nc2cc(Cl)c3c(Nc4cccnc4O[C@H]4COC[C@@H]4O)ncnc3c2)CCC1 [Example 1.13]
96	8.30	–	CS(C)(=O)=Nc1cc(Cl)c2c(Nc3cccnc3O[C@H]3COC[C@@H]3O)ncnc2c1 [Example 1.14]
103	8.52	7.47	O=S1(=Nc2cc(Cl)c3c(Nc4cccnc4O[C@H]4COC[C@@H]4O)ncnc3c2)CCCC1 [Example 1.15]
96	8.70	–	O=S1(=Nc2cc(Cl)c3c(Nc4ccc(Cl)nc4O[C@H]4COC[C@@H]4O)ncnc3c2)CCC1 [Example 1.16]
103	8.70	–	O=S1(=Nc2cc(Cl)c3c(Nc4ccc(Cl)nc4O[C@H]4COC[C@@H]4O)ncnc3c2)CCCC1 [Example 1.17]
97	8.70	–	CS(C)(=O)=Nc1cc(Br)c2c(Nc3ccc(F)cc3O[C@H]3COC[C@@H]3O)ncnc2c1 [Example 1.18]
99	8.40	–	CS(C)(=O)=Nc1cc(Cl)c2c(Nc3ccc(Cl)nc3O[C@H]3COC[C@@H]3O)ncnc2c1 [Example 1.19]
97	8.70	–	O=S1(=Nc2cc(F)c3c(Nc4ccc(Cl)nc4O[C@H]4COC[C@@H]4O)ncnc3c2)CCCC1 [Example 1.20]
93	8.15	–	CS(C)(=O)=Nc1cc(F)c2c(Nc3ccc(Cl)nc3O[C@H]3COC[C@@H]3O)ncnc2c1 [Example 1.21]
92	9.00	–	O=S1(=Nc2cc(Cl)c3c(Nc4ccc(F)cc4O[C@@H]4COC[C@H]4O)ncnc3c2)CCC1 [Example 1.22]
99	8.30	–	Cc1cc(N=S(C)(C)=O)cc2ncnc(Nc3ccc(Cl)cc3O[C@H]3COC[C@@H]3O)c12 [Example 1.23]
91	8.52	–	O=S1(=Nc2cc(F)c3c(Nc4ccc(Cl)nc4O[C@H]4COC[C@@H]4O)ncnc3c2)CCC1 [Example 1.24]
97	8.70	–	O=S1(=Nc2cc(Cl)c3c(Nc4ccc(F)cc4O[C@@H]4COC[C@H]4O)ncnc3c2)CCCC1 [Example 1.25]
99	8.52	–	CS(C)(=O)=Nc1cc(Cl)c2c(Nc3ccc(F)cc3O[C@@H]3COC[C@H]3O)ncnc2c1 [Example 1.26]
–	8.52	7.48	Cc1cc(N=S2(=O)CCCC2)cc2ncnc(Nc3ccc(Cl)cc3O[C@H]3COC[C@@H]3O)c12 [Example 1.27]
96	8.40	–	O=S1(=Nc2cc(C(F)(F)F)c3c(Nc4ccc(F)cc4O[C@H]4COC[C@@H]4O)ncnc3c2)CCCC1 [Example 1.28]
100	8.70	–	Cc1cc(N=S2(=O)CCC2)cc2ncnc(Nc3ccc(Cl)cc3O[C@H]3COC[C@@H]3O)c12 [Example 1.29]
93	8.52	–	Cc1cc(N=S2(=O)CCC2)cc2ncnc(Nc3ccc(Cl)cc3O[C@@H]3COC[C@H]3O)c12 [Example 1.30]
